Experimental data taken from patent US8362000B2, “Azetidinyl diamides as monoacylglycerol lipase inhibitors” (Janssen Pharmaceutica NV, priority 2009, dated 2013).
Where a chain is given by its changes, count along the chain named. Where two headings read alike, the source gives them in different places.

Experiments:
[1] = biological target: T1, purified wild type MGL (wt-MGLL 6H-11-313) (Homo sapiens, UniProt Q99685)
T1 sequence (Q99685 1-303): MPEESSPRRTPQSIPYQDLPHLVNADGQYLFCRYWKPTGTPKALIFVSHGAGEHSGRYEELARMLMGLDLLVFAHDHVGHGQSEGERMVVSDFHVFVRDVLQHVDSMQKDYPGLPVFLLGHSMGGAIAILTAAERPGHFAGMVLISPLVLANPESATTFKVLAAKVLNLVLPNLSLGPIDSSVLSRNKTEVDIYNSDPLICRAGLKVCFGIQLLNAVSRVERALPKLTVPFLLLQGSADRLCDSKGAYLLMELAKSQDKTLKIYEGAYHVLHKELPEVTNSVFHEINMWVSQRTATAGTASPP

MGL = biological target: T2, MGL (Rattus norvegicus, UniProt Q8R431); assay: 2-AG accumulation assay in rat brain homogenate; type: biochemical; settings: rat brain homogenate, 2-AG accumulation as percent of vehicle; for 2-AG accumulation, % of vehicle control at 1 µM: compound 1 μM, read-out: Rat Brain 2AG % VehCntrl (%) @ 1 μM
T2 construct: one g rat brain was homogenized using a Polytron homogenizer; from tissue; host or cells: rat brain homogenate
T2 sequence (Q8R431 1-303): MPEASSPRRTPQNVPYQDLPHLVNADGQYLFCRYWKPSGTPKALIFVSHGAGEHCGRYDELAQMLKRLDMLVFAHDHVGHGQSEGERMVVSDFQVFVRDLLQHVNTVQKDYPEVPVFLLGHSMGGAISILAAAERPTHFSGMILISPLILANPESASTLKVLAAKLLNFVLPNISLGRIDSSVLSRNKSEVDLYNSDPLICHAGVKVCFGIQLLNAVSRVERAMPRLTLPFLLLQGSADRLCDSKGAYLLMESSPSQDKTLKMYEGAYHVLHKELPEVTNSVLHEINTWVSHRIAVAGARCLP

mutant MGL = biological target: T3, mutant MGL (Homo sapiens, UniProt Q99685, L169S/L176S); assay: MGL ThermoFluor assay - mutant; type: binding
T3 sequence (Q99685 1-303 L169S/L176S): T1 sequence (Q99685 1-303) with L169S, L176S

[2] = ThermoFluor concentration-response, read-out: MGL mutant ThermoFluor Kd
[3] = ThermoFluor, compound concentration measured by qNMR, read-out: MGL mutant ThermoFluor qKd (μM) (using qNMR conc.)

| SMILES | IC50 [1] [nM] | 2-AG accumulation, % of vehicle control at 1 µM (MGL) [%] | Kd (mutant MGL; [2]) [µM] | Kd (mutant MGL; compound concentration measured by qNMR, read-out: MGL mutant ThermoFluor qKd (using qNMR conc.)) [µM] | Kd (mutant MGL; [3]) [µM] | Kd (mutant MGL; ThermoFluor, compound concentration measured by qNMR, read-out: MGL mutant ThermoFluor qKd (using qNMR conc.)) [µM] | 2-AG accumulation, % of vehicle control at 10 µM (MGL; compound 10 μM, read-out: Rat Brain 2AG % VehCntrl (%) @ 10 μM) [%] | Kd (mutant MGL; ThermoFluor thermal stability binding assay, read-out: MGL mutant ThermoFluor Kd) [µM] |
| --- | --- | --- | --- | --- | --- | --- | --- | --- |
| O=C(c1ccc2c(c1)Sc1ccccc1O2)N1CC(N2CCN(C(=O)c3ccc[nH]3)CC2)C1 [Cpd 678, 1-[1-(Phenoxathiin-2-ylcarbonyl)azetidin-3-yl]-4-(1H-pyrrol-2-ylcarbonyl)piperazine] | 22 | 234 | 0.031 | – | – | – | – | – |
| O=C(c1ccccc1)N1CCN(C2CN(C(=O)c3ccc(Sc4cccc(C(F)(F)F)c4)cc3)C2)CC1 [Cpd 430] | 23.6 | 114 | 0.0667 | – | – | – | – | – |
| O=C(c1ccc(Sc2cccc(Cl)c2)cc1)N1CC(N2CCN(C(=O)C(F)(F)F)CC2)C1 [Cpd 677] | 21 | 141 | – | 0.432 | – | – | – | – |
| O=C(c1ccc2c(-c3cccc(C(F)(F)F)c3)c[nH]c2c1)N1CC(N2CCN(C(=O)c3cscn3)CC2)C1 [Cpd 1345] | < 5 | 459 | 0.006 | – | – | – | – | – |
| Cc1c(C(=O)N2CCN(C3CN(C(=O)c4cscn4)C3)CC2)sc2cc(C(F)(F)F)ccc12 [Cpd 705] | 99 | 487 | 0.012 | – | – | – | – | – |
| O=C(c1ccc(C(F)c2ccc(C(F)(F)F)cc2)cc1)N1CC(N2CCN(C(=O)c3nccs3)CC2)C1 (stereo not shown) [Cpd 982, 1-{1-[(4-{Fluoro[4-(trifluoromethyl)phenyl]methyl}phenyl)carbonyl]azetidin-3-yl}-4-(1,3-thiazol-2-ylcarbonyl)piperazine] | < 5 | 762 | 0.01 | – | – | – | – | – |
| O=C(c1ccc2c(-c3ccccc3)cccc2c1)N1CC(N2CCN(C(=O)c3nccs3)CC2)C1 [Cpd 338, 1-{1-[(5-Phenylnaphthalen-2-yl)carbonyl]azetidin-3-3yl}-4-(1,3-thiazol-2-ylcarbonyl)piperazine] | < 5 | – | – | – | – | – | 791 | 0.0011 |
| O=C(c1ccc(COc2cccc(Cl)c2)cc1)N1CC(N2CCN(C(=O)c3cscn3)CC2)C1 [Cpd 959] | < 5 | 861 | 0.044 | – | – | – | – | – |

Results, then the compound that gave them:

| IC50 [1] [nM] | 2-AG accumulation, % of vehicle control at 1 µM (MGL) [%] | Kd (mutant MGL; [2]) [µM] | Kd (mutant MGL; compound concentration measured by qNMR, read-out: MGL mutant ThermoFluor qKd (using qNMR conc.)) [µM] | Kd (mutant MGL; [3]) [µM] | Kd (mutant MGL; ThermoFluor, compound concentration measured by qNMR, read-out: MGL mutant ThermoFluor qKd (using qNMR conc.)) [µM] | 2-AG accumulation, % of vehicle control at 10 µM (MGL; compound 10 μM, read-out: Rat Brain 2AG % VehCntrl (%) @ 10 μM) [%] | Kd (mutant MGL; ThermoFluor thermal stability binding assay, read-out: MGL mutant ThermoFluor Kd) [µM] | SMILES |
| --- | --- | --- | --- | --- | --- | --- | --- | --- |
| 151 | 231 | 0.5 | – | – | – | – | – | O=C(c1nccs1)N1CCN(C2CN(C(=O)c3cc(-c4ccccc4)ccc3Cl)C2)CC1 [Cpd 1200] |
| 21 | 296 | 0.119 | – | – | – | – | – | CCCCCCCCCCCCCCCC(=O)N1CC(N2CCN(C(=O)c3nccs3)CC2)C1 [Cpd 636] |
| < 5 | 722 | 0.002 | – | – | – | – | – | O=C(c1ccc2c(-c3ccc(F)cc3)c[nH]c2c1)N1CC(N2CCN(C(=O)c3nccs3)CC2)C1 [Cpd 1317, 3-(4-Fluorophenyl)-6-({3-[4-(1,3-thiazol-2-ylcarbonyl)piperazin-1-yl]azetidin-1-yl}carbonyl)-1H-indole] |
| < 5 | 534 | 0.006 | – | – | – | – | – | CCCCc1ccc(C(=O)N2CC(N3CCN(C(=O)c4nccs4)CC3)C2)cc1 [Cpd 894] |
| 27 | 406 | – | – | 0.067 | – | – | – | Cn1ccc2cc(C(=O)N3CC(N4CCN(C(=O)c5nccs5)CC4)C3)cc(Br)c21 [Cpd 681] |
| < 5 | 397 | 0.118 | – | – | 0.136 | – | – | CCCCCCCC/C=C\CCCCCCCC(=O)N1CC(N2CCN(C(=O)c3nccs3)CC2)C1 [Cpd 641] |
| 12 | 501 | – | – | 0.044 | – | – | – | Cn1ccc2cc(C(=O)N3CC(N4CCN(C(=O)c5nccs5)CC4)C3)cc(-c3ccc(F)cc3)c21 [Cpd 1101] |
| 190 | 212 | 1 | – | – | – | – | – | O=C(c1nccs1)N1CCN(C2CN(C(=O)c3cc(-c4ccccc4)ccc3F)C2)CC1 [Cpd 1208] |
| < 5 | 750 | – | – | 0.009 | – | – | – | Cc1cc(C(=O)N2CC(N3CCN(C(=O)c4nccs4)CC3)C2)sc1-c1cccc(C(F)(F)F)c1 [Cpd 1354] |
